Among the test systems are CAKI-1 renal; CCRF-CEM leukemia; HCC-2998 colon; KM12 colon; NCI-H23 lung; OVCAR-3 ovarian; RXF 393 renal; SF-295 CNS; SN12C renal; UACC-62 melanoma.
Experiment in all cases: NCI anticancer screen, dose series, 48 h

Where “and” joins values, the source holds several entries; their conditions need not be identical. Identical values can stand only once.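 1) Cells in 96-well plates. 2) Compound, 48 h, 5 concentrations. 3) Linear interpolation between surrounding doses. 4) Unreached endpoint = highest concentration. GI50: concentration for 50% inhibition of growth. TGI is the concentration that stops growth completely.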

With `O=C(/C=C/N1CCN(c2cccc(Cl)c2)CC1)c1ccc(Cl)cc1`, the GI50 with CAKI-1 renal is 28.8 µM; in the assay on CCRF-CEM leukemia, 22.6 µM; in the assay with HCC-2998 colon, 24.9 µM; in the assay on KM12 colon, 27.1 µM; in the assay on NCI-H23 lung, 39 µM; in the assay with OVCAR-3 ovarian, 24.1 µM. Further, the GI50 with RXF 393 renal was 39.1 µM; in the assay with SF-295 CNS, 18.6 µM; in the assay with SN12C renal, 24.1 µM; in the assay on UACC-62 melanoma it was 27.3 µM. Further, the TGI in the assay with CAKI-1 renal was 71.1 µM; in the assay with CCRF-CEM leukemia, 66.7 µM; in the assay with HCC-2998 colon, 50.5 µM; in the assay with KM12 colon it was 69.8 µM; in the assay with NCI-H23 lung, above 100 µM; in the assay on OVCAR-3 ovarian, 73.7 µM. In addition, the TGI was above 100 µM with RXF 393 renal, 54.2 µM in the assay with SF-295 CNS, 65 µM in the assay on SN12C renal and 83.5 µM in the assay on UACC-62 melanoma.

Consider `Cc1[nH]n(C(=O)c2ccc(Cl)cc2)c(=O)c1/C=C1\C(O)=CC(=O)c2ccccc21`, for which the TGI in the assay on CAKI-1 renal, in the assay on CCRF-CEM leukemia, in the assay with HCC-2998 colon, in the assay with KM12 colon, in the assay on NCI-H23 lung and in the assay on OVCAR-3 ovarian was above 100 µM throughout. The TGI in the assay with RXF 393 renal, in the assay with SF-295 CNS, in the assay with SN12C renal and in the assay with UACC-62 melanoma was above 100 µM throughout.

For `CCOC(=O)c1c(/C=N\Nc2ccccc2)nc2ccccc2c1-c1ccccc1`, the TGI is above 100 µM in the assay on CAKI-1 renal; 88 µM in the assay on CCRF-CEM leukemia; 77 µM in the assay with HCC-2998 colon; above 100 µM with KM12 colon; above 100 µM with NCI-H23 lung; above 100 µM in the assay with OVCAR-3 ovarian. For the same molecule, the TGI in the assay with RXF 393 renal is above 100 µM; with SF-295 CNS it was above 100 µM; with SN12C renal, above 100 µM; in the assay on UACC-62 melanoma, 76.9 µM.

As for `Cc1nc(-c2cccnc2)sc1C(=O)/C=C/c1ccc(Cl)cc1Cl`, the TGI in the assay on CAKI-1 renal, with CCRF-CEM leukemia, in the assay with HCC-2998 colon, in the assay with KM12 colon, in the assay on NCI-H23 lung and in the assay with OVCAR-3 ovarian was above 100 µM throughout. Also, the TGI in the assay with RXF 393 renal, with SF-295 CNS, with SN12C renal and with UACC-62 melanoma was above 100 µM throughout.

For the molecule `Nc1nc(N)c(-c2ccccc2)c(C(=O)Nc2nccs2)n1`, the TGI in the assay on CAKI-1 renal, in the assay on CCRF-CEM leukemia, with HCC-2998 colon, in the assay on KM12 colon, in the assay on NCI-H23 lung and in the assay with OVCAR-3 ovarian was above 100 µM throughout. Besides, the TGI with RXF 393 renal, in the assay on SF-295 CNS, with SN12C renal and in the assay with UACC-62 melanoma was above 100 µM throughout.

`O=C(Nc1cccc(C(F)(F)F)c1)Nc1cc(S(=O)(=O)NC2CC2)ccc1-c1ccsc1`: the GI50 with CAKI-1 renal was 4.47 µM; in the assay with CCRF-CEM leukemia it was 3.25 µM; in the assay on HCC-2998 colon it was 6.15 µM; in the assay on KM12 colon, 4.46 µM; with NCI-H23 lung it was 4.03 µM; with OVCAR-3 ovarian, 4.02 µM. The GI50 in the assay on RXF 393 renal was 4.98 µM; in the assay with SF-295 CNS, 3.16 µM; in the assay on SN12C renal it was 4.33 µM; with UACC-62 melanoma it was 2.93 µM. The TGI amounted to 18.6 µM in the assay with CAKI-1 renal; 18.3 µM with CCRF-CEM leukemia; 19.8 µM in the assay with HCC-2998 colon; 16.1 µM in the assay on KM12 colon; 16.6 µM in the assay with NCI-H23 lung; 14.9 µM in the assay with OVCAR-3 ovarian. Further, the TGI came out at 18.8 µM in the assay with RXF 393 renal, 11.8 µM in the assay with SF-295 CNS, 18.3 µM in the assay on SN12C renal and 13.8 µM in the assay with UACC-62 melanoma.

Turning to `COC(=O)/C(=C/c1ccc(OC)cc1)c1cc(OC)c(OC)c(OC)c1`, the TGI is above 100 µM in the assay on CAKI-1 renal; above 55.7 µM in the assay on CCRF-CEM leukemia; above 59 µM in the assay on HCC-2998 colon; 71 µM in the assay with KM12 colon; 26.8 µM with NCI-H23 lung; 2.63 µM with OVCAR-3 ovarian. Besides, the TGI in the assay with RXF 393 renal was 3.38 µM; with SF-295 CNS, 8.02 µM; in the assay with SN12C renal, above 100 µM; with UACC-62 melanoma, 37.4 µM.

`Oc1ccc(/C=N/Nc2nnc(N/N=C/c3ccc(O)cc3O)c3ccccc23)c(O)c1`: the GI50 with CAKI-1 renal was 0.334 µM; with CCRF-CEM leukemia, 0.28 µM; in the assay on HCC-2998 colon, 0.446 µM; with KM12 colon, 0.375 µM; with NCI-H23 lung it was 0.707 µM; with OVCAR-3 ovarian it was 0.385 µM. Also, the GI50 with RXF 393 renal was 0.519 µM; in the assay on SF-295 CNS, 0.173 µM; with SN12C renal, 0.507 µM; in the assay with UACC-62 melanoma, 0.318 µM. Further, the TGI is 0.671 µM with CAKI-1 renal; 0.783 µM and 5.49 µM with CCRF-CEM leukemia; 2.42 µM in the assay on HCC-2998 colon; 0.8 µM and 1.54 µM in the assay on KM12 colon; 2.77 µM with NCI-H23 lung; 0.489 µM and 1.9 µM in the assay on OVCAR-3 ovarian. The TGI in the assay with RXF 393 renal was 2.4 µM; with SF-295 CNS it was 0.813 µM and 0.597 µM; in the assay on SN12C renal it was 6.72 µM; in the assay with UACC-62 melanoma, 0.602 µM and 1.58 µM.

Regarding `CC(=O)OCC1OC(OC(C)=O)C(NC#N)C(OC(C)=O)C1OC(C)=O` (stereo not given), the TGI in the assay on CAKI-1 renal, in the assay on CCRF-CEM leukemia, in the assay on HCC-2998 colon, in the assay on KM12 colon, in the assay with NCI-H23 lung and in the assay on OVCAR-3 ovarian was above 100 µM each time. Besides, the TGI in the assay with RXF 393 renal, in the assay with SF-295 CNS, in the assay with SN12C renal and in the assay with UACC-62 melanoma was above 100 µM throughout.

(Values after PubChem BioAssay (NCI).)
